Laboratory results published in US20220162191A1, “SMALL MOLECULE MODULATORS OF IL-17” (LEO PHARMA A/S, priority 2019, published 2022).
Where a name gives a salt, the structure may show the parent alone.

Each compound was assayed against T1, human IL-17AA (Homo sapiens, UniProt Q16552) (assay: IL-8 release assay in human epithelial keratinocytes adult (HEKa)). Details: 3 ng/ml human IL-17AA + 10 ng/ml human TNFalpha, 68-72 h, IL-8 by HTRF, read-out: Rel EC50 L-8 release assay.
T1 construct: host or cells: HEK (human embryonic kidney) cells
T1 sequence (Q16552 24-155) 1: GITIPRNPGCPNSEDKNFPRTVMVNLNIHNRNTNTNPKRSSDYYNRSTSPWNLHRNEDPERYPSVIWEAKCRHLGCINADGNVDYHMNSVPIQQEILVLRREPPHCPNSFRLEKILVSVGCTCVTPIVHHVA
T1 sequence (Q16552 24-155) 2: T1 sequence (Q16552 24-155) 1
Assay type: cell-based
Method: Example: IL-8 release assay in human epithelial keratinocytes adult (HEKa) Keratinocytes were seeded at 3500 cells/well in 384-well ViewPlates (Perkin Elmer) in Epilife medium (Thermo Fisher) containing human keratinocyte growth supplement (HKGS) without hydrocortisone and incubated in a humid incubator at 37° C., 5% CO2, overnight. The following day growth medium was removed and 25 μl fresh Epilife 10 medium added. 75 nl test compound in 100% DMSO was added into each well reserved
for test compounds, by the use of acoustic pipetting. The remaining wells received an equal volume of DMSO only, as vehicle control, or terfenadine in DMSO, as a positive control for any cytotoxic compounds. Subsequently, another 25 μl Epilife medium was added to each well. Finally, wells containing test compounds and wells prepared to yield 15 maximum stimulation received 25 μl of 9 ng/ml recombinant, human embryonic kidney cell (HEK)-derived human IL-17AA+30 ng/ml human TNF-alpha, in Epilife medium. Wells prepared to define 100% inhibition of IL-17 effects received 25 μl of 30 ng/ml human TNF-alpha alone, in Epilife medium. Final concentrations were 3 ng/ml HEKhuman IL-17AA+10 ng/ml human TNFalpha (maximum stimulation) and 10 ng/ml 20 human TNFalpha alone (100% inhibition, Emax), respectively. Cells were incubated for 68-72 h in the incubator. IL-8 released from the cells was measured by the use of a commercial homogenous time-resolved fluorescence (HTRF) assay (CisBio). 2 μl cell culture supernatant was transferred to a 384-well Proxiplate. 5 μl HTRF reagent was added and the plates incubated sealed in the dark for 3-22 h at room temperature. Time resolved fluorescence was read at 665 vs 620 nm, with excitation at 320 nm, and IL-8 levels calculated as percent of controls. Reduction of the amount of secreted IL-8 indicates decreased IL-17 signaling. Concentration response curves were fitted by the use of a four-parameter logistic equation. Relative IC50 and Emax were reported from 5 curves showing acceptable fit (r2>0.9). Cytotoxicity was measured in the cell-containing
Compounds of the present invention were tested in the IL-8 release assay in human epithelial keratinocytes.

EC50	SMILES
> 1 µM	Cn1cnnc1-c1ccc(NC(=O)[C@@H](NC(=O)C2(F)CC2)[C@@H]2CCCc3ccc(-c4ccnc(N5C[C@H]6C[C@@H]5CO6)c4)cc32)cc1 [Example 405, 1-fluoro-N-[(1S)-2-[4-(4-methyl-1,2,4-triazol-3-yl)anilino]-1-[(1R)-7-[2-[(1R,4R)-2-oxa-5-azabicyclo[2.2.1]heptan-5-yl]-4-pyridyl]tetralin-1-yl]-2-oxo-ethyl]cyclopropanecarboxamide]
< 0.1 µM	Cc1ncn(C)c1-c1ccc(NC(=O)[C@@H](NC(=O)C2(F)CC2)[C@@H]2CCCc3ccc(-c4ccnc(N5C[C@@H]6C[C@H]5CN6)c4)cc32)cc1 [Example 40, N-[(1S)-1-[(1R)-7-[2-[(1S,4S)-2,5-diazabicyclo[2.2.1]heptan-2-yl]-4-pyridyl]tetralin-1-yl]-2-[4-(3,5-dimethylimidazol-4-yl)anilino]-2-oxo-ethyl]-1-fluoro-cyclopropanecarboxamide]
0.1 to 1 µM	CC(C)n1nccc1C(=O)N[C@@H](Cc1cc(-c2ccc(=O)n(C(C)C)c2)ccc1Cl)C(=O)Nc1ccc(-c2nncn2C)cc1 [Example 91, N-[(1S)-1-[[2-chloro-5-(1-isopropyl-6-oxo-3-pyridyl)phenyl]methyl]-2-[4-(4-methyl-1,2,4-triazol-3-yl)anilino]-2-oxo-ethyl]-2-isopropyl-pyrazole-3-carboxamide]
> 1 µM	Cc1nocc1C(=O)NC(Cc1cc(-c2ccc(=O)n(C3CC3)c2)ccc1Cl)C(=O)Nc1ccc(-c2nncn2C)cc1 (centres unmarked) [Example 63, N-[1-[[2-chloro-5-(1-cyclopropyl-6-oxo-3-pyridyl)phenyl]methyl]-2-[4-(4-methyl-1,2,4-triazol-3-yl)anilino]-2-oxo-ethyl]-3-methyl-isoxazole-4-carboxamide]
0.1 to 1 µM	Cn1cnnc1-c1ccc(NC(=O)C(Cc2cc(-c3ccc(O)c(CN4CCNCC4)c3)ccc2Cl)NC(=O)c2ccnn2C)cc1 (centres unmarked) [Example 157, N-[1-[[2-chloro-5-[4-hydroxy-3-(piperazin-1-ylmethyl)phenyl]phenyl]methyl]-2-[4-(4-methyl-1,2,4-triazol-3-yl)anilino]-2-oxo-ethyl]-2-methyl-pyrazole-3-carboxamide]
> 1 µM	Cc1nocc1C(=O)NC(Cc1cc(-c2ccnc(C(=O)N(C)C3CC3)c2)ccc1Cl)C(=O)Nc1ccc(-c2nncn2C)cc1 (centres unmarked) [Example 306, N-[1-[[2-chloro-5-[2-[cyclopropyl(methyl)carbamoyl]-4-pyridyl]phenyl]methyl]-2-[4-(4-methyl-1,2,4-triazol-3-yl)anilino]-2-oxo-ethyl]-3-methyl-isoxazole-4-carboxamide]
0.1 to 1 µM	Cc1cnn(C)c1-c1ccc(NC(=O)[C@H](Cc2cc(-c3ccc(=O)n(C(C)C)c3)ccc2Cl)NC(=O)C2(C)CC2)cc1 [Example 334, N-[(1S)-1-[[2-chloro-5-(1-isopropyl-6-oxo-3-pyridyl)phenyl]methyl]-2-[4-(2,4-dimethylpyrazol-3-yl)anilino]-2-oxo-ethyl]-1-methyl-cyclopropanecarboxamide]
< 0.1 µM	Cc1n[nH]c(C)c1-c1ccc(NC(=O)[C@@H](NC(=O)C2(F)CC2)[C@@H]2CCCc3ccc(-c4ccnc(N5C[C@H]6C[C@@H]5CO6)c4)cc32)cc1 [Example 387, N-[(1S)-2-[4-(3,5-dimethyl-1H-pyrazol-4-yl)anilino]-1-[(1R)-7-[2-[(1R,4R)-2-oxa-5-azabicyclo[2.2.1]heptan-5-yl]-4-pyridyl]tetralin-1-yl]-2-oxo-ethyl]-1-fluoro-cyclopropanecarboxamide]
0.1 to 1 µM	Cc1n[nH]c(C)c1-c1ccc(NC(=O)[C@H](NC(=O)C2(F)CC2)[C@H](C)c2cccc(-c3ccnc(N4C[C@@H]5C[C@H]4CO5)c3)c2)cc1 [Example 340, N-[(1R,2R)-1-[[4-(3,5-dimethyl-1H-pyrazol-4-yl)phenyl]carbamoyl]-2-[3-[2-[(1S,4S)-2-oxa-5-azabicyclo[2.2.1]heptan-5-yl]-4-pyridyl]phenyl]propyl]-1-fluoro-cyclopropanecarboxamide]
0.1 to 1 µM	Cc1n[nH]c(C)c1-c1ccc(NC(=O)[C@H](Cc2cc(-c3cnn(C)c3C)ccc2Cl)NC(=O)C2(F)CC2)cc1 [Example 227, N-[(1S)-1-[[2-chloro-5-(1,5-dimethylpyrazol-4-yl)phenyl]methyl]-2-[4-(3,5-dimethyl-1H-pyrazol-4-yl)anilino]-2-oxo-ethyl]-1-fluoro-cyclopropanecarboxamide]
0.1 to 1 µM	Cc1n[nH]cc1-c1ccc(NC(=O)C(NC(=O)OC2CC2)C(c2ccccc2)c2cccc(-c3ccc(=O)n(C(C)C)c3)c2)cc1 (single isomer, unassigned; diastereomer 2) [Example 243, cyclopropyl N-[1-[[3-(1-isopropyl-6-oxo-3-pyridyl)phenyl]-phenyl-methyl]-2-[4-(3-methyl-1H-pyrazol-4-yl)anilino]-2-oxo-ethyl]carbamate (Diastereomer 2)]
0.1 to 1 µM	CC(C)n1cc(-c2ccc3c(c2)C([C@H](NC(=O)c2ccnn2C)C(=O)Nc2ccc(-c4cncn4C)cc2)CC3)ccc1=O (stereo partly drawn) [Example 25, N-[(1S)-1-[6-(1-isopropyl-6-oxo-3-pyridyl)indan-1-yl]-2-[4-(3-methylimidazol-4-yl)anilino]-2-oxo-ethyl]-2-methyl-pyrazole-3-carboxamide]
0.1 to 1 µM	Cc1nocc1C(=O)N[C@@H](Cc1cc(-c2ccnc(C(O)C(C)C)c2)ccc1Cl)C(=O)Nc1ccc(-c2nncn2C)cc1 (stereo partly drawn) [Example 82, N-[(1S)-1-[[2-chloro-5-[2-(1-hydroxy-2-methyl-propyl)-4-pyridyl]phenyl]methyl]-2-[4-(4-methyl-1,2,4-triazol-3-yl)anilino]-2-oxo-ethyl]-3-methyl-isoxazole-4-carboxamide]
0.1 to 1 µM	Cc1[nH]ncc1-c1ccc(NC(=O)C(Cc2cc(-c3ccc(=O)n(C(C)C)c3)ccc2Cl)NC(=O)C2(F)CC2)cc1 (centres unmarked) [Example 129, N-[1-[[2-chloro-5-(1-isopropyl-6-oxo-3-pyridyl)phenyl]methyl]-2-[4-(5-methyl-1H-pyrazol-4-yl)anilino]-2-oxo-ethyl]-1-fluoro-cyclopropanecarboxamide]
< 0.1 µM	COCCOCCn1cc(-c2ccc(-c3ccc(Cl)c(CC(NC(=O)c4ccnn4C)C(=O)Nc4ccc(-c5c(C)n[nH]c5C)cc4)c3)cc2)nn1 (centres unmarked) [Example 313, N-[1-[[2-chloro-5-[4-[1-[2-(2-methoxyethoxy)ethyl]triazol-4-yl]phenyl]phenyl]methyl]-2-[4-(3,5-dimethyl-1H-pyrazol-4-yl)anilino]-2-oxo-ethyl]-2-methyl-pyrazole-3-carboxamide]
> 1 µM	CC(C)n1cc(-c2ccc(Cl)c(CC(NC(=O)c3ccnn3C)C(=O)Nc3ccc(-c4nncn4C)cc3)c2)ccc1=O (centres unmarked) [Example 62, N-[1-[[2-chloro-5-(1-isopropyl-6-oxo-3-pyridyl)phenyl]methyl]-2-[4-(4-methyl-1,2,4-triazol-3-yl)anilino]-2-oxo-ethyl]-2-methyl-pyrazole-3-carboxamide]
< 0.1 µM	Cc1n[nH]c(C)c1-c1ccc(NC(=O)[C@@H](NC(=O)c2ccnn2C)[C@@H]2CCc3ccc(-c4cnn(C(C)(C)CO)c4)cc32)cc1 [Example 11, N-[(1S)-2-[4-(3,5-dimethyl-1H-pyrazol-4-yl)anilino]-1-[(1R)-6-[1-(2-hydroxy-1,1-dimethyl-ethyl]pyrazol-4-yl]indan-1-yl]-2-oxo-ethyl]-2-methyl-pyrazole-3-carboxamide]
> 1 µM	CCc1cc(-c2ccc(Cl)c(CC(NC(=O)c3ccnn3C)C(=O)Nc3ccc(-c4nncn4C)cc3)c2)ccc1C#N (centres unmarked) [Example 198, N-[1-[[2-chloro-5-(4-cyano-3-ethyl-phenyl)phenyl]methyl]-2-[4-(4-methyl-1,2,4-triazol-3-yl)anilino]-2-oxo-ethyl]-2-methyl-pyrazole-3-carboxamide]
0.1 to 1 µM	Cn1cncc1-c1ccc(NC(=O)[C@H](Cc2cc(-c3cccc(C4CNCCO4)c3)ccc2Cl)NC(=O)c2ccnn2C)cc1 (stereo partly drawn) [Example 219, N-[(1S)-1-[[2-chloro-5-(3-morpholin-2-ylphenyl)phenyl]methyl]-2-[4-(3-methylimidazol-4-yl)anilino]-2-oxo-ethyl]-2-methyl-pyrazole-3-carboxamide hydrochloride]

SMILES	EC50
Cc1[nH]nnc1-c1ccc(NC(=O)C(Cc2cc(-c3ccc(=O)n(C(C)C)c3)ccc2Cl)NC(=O)c2ccnn2C)cc1 (centres unmarked) [Example 98, N-[1-[[2-chloro-5-(1-isopropyl-6-oxo-3-pyridyl)phenyl]methyl]-2-[4-(5-methyl-1H-triazol-4-yl)anilino]-2-oxo-ethyl]-2-methyl-pyrazole-3-carboxamide]	0.1 to 1 µM
